Columns and labels:
[1] = target: T1, hERG potassium channel (Homo sapiens, UniProt Q12809); assay: hERG test (Predictor hERG Fluorescence Polarization Assay Kit); assay type: binding
T1 construct: purchased Thermo Fisher
Experimental: The effects of the crystalline forms of the compound of Formula (I) on hERG potassium channel were determined using a biochemical hERG assay kit based on fluorescence polarization technology (Predictor™ hERG Fluorescence Polarization Assay Kit, Thermo Fisher) to assess the potential of the crystalline form of the compound of Formula (I) in inducing cardiac QT interval prolongation.

[2] = Cytotoxicity (MTS) in HEK293; assay type: cell-based; conditions: HEK293 cells, human embryonic kidney cell, 40 h incubation
Experimental: (§1) The cells were plated at a concentration of 2×10^4 cells/well and incubated for 4 h at 37° C. in a 5% CO2 incubator. The crystalline form of the compound of Formula (I) of the present invention was added, and incubation was continued for 40 h. The incubation solution was removed, and a complete medium was added (100 μl/well) to each test well and incubated in the incubator for 0.5 to 1 h. Then, MTS solution was added (10 μl/well) thereto, and incubation was continued for 4 h in the incubator. The absorbance at 450 nm was measured, and the IC50 value was calculated.

[3] = tested on: Collagen-Induced Arthritis (CIA) model; assay: Efficacy in collagen-induced arthritis (CIA) model in rats; assay type: in vivo, rat; parameters: Mean pathological score, Joint inflammation (X ± SD) / Mean pathological score, Joint cartilage erosion (X ± SD) / Mean pathological score, Synovial hyperplasia/pannus (X ± SD): scale not given here; conditions: for Mean pathological score, Joint cartilage erosion (X ± SD) / Mean pathological score, Joint inflammation (X ± SD) / Mean pathological score, Synovial hyperplasia/pannus (X ± SD): hind paw joints
Experimental: After female Lewis rats were immunized twice with bovine type II collagen to form a CIA model, the rats were randomly divided into 4 groups (the vehicle group, and the groups of the crystalline form of the compound of Formula (I) of the present invention (1 mg/kg, 3 mg/kg, 10 mg/kg), respectively), and unmodeled rats were taken as the normal group. The corresponding drugs were administered by gavage once a day for 14 days (D15-D28). The hind paw was scored for arthritis index during the administration (the results are shown in Table 5); and after the end of the experiment, the ankle joint was taken for pathologic analysis (the average pathological scores of the hind paw joints of the rats are shown in Table 6).

[4] = target: T2, JAK3 (Homo sapiens, UniProt P52333); assay: JAK3 enzymatic activity inhibition assay (HTRF KinEASE-TK); assay type: biochemical
T2 sequence (P52333 1-1124): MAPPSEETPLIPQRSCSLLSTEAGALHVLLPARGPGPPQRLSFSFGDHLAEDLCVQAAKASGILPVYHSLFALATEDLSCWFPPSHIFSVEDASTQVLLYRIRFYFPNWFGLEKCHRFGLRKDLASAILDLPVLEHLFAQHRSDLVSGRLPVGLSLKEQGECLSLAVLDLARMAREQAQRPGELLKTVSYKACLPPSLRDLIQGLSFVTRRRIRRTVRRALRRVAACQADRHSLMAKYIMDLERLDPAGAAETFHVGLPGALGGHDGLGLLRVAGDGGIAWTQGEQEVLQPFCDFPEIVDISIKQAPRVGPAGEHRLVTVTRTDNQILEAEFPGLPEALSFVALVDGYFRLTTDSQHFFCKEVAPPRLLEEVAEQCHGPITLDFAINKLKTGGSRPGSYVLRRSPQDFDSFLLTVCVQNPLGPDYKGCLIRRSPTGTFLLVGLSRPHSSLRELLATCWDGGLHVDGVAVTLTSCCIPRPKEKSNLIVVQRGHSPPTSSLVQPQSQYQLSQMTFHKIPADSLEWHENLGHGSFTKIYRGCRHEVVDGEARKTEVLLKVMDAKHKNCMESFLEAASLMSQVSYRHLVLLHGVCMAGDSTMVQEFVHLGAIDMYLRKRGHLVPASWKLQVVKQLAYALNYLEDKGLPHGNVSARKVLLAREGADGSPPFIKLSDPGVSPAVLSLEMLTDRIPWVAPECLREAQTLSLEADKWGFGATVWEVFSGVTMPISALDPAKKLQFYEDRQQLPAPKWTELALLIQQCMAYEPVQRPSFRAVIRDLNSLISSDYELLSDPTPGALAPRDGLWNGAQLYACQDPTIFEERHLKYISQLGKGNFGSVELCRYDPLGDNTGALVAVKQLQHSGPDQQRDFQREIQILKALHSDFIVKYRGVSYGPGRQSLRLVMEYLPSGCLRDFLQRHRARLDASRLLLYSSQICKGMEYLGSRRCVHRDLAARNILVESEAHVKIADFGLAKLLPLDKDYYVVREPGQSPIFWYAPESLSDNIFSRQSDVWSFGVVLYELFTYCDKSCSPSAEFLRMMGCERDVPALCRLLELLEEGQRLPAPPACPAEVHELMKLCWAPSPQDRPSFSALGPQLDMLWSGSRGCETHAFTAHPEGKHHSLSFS
Experimental: (§3) The crystalline form of the compound of Formula (I), an enzyme, a substrate and ATP were diluted to desired concentrations with the buffer in the HTRF® KinEASE™-TK kit (Cisbio). The former three agents were added into a multiple well plate, and incubated at room temperature after being mixed homogeneously. ATP was added to initiate the kinase reaction, and incubation at room temperature was performed. The test reagent in the kit was used to terminate the reaction, and incubation was continued at room temperature. After the incubation was completed, fluorescence signals at 620 nm and 665 nm were measured using a BMG PHERAstar FS microplate reader, and the half inhibitory concentration (IC50) values were calculated.

[5] = Cytotoxicity (MTS) in HK-2; assay type: cell-based; conditions: HK-2 cells, human proximal tubular cell, 40 h incubation
Experimental: as §1

[6] = Physicochemical stability (high temperature, high humidity, light; XRPD and HPLC); conditions: XRPD
[7] = tested on: STAT3 phosphorylation in Hep3B cells; assay: Effect on JAK/STAT signaling pathway in Hep3B cells (IL-6 induced p-STAT3, AlphaLISA); assay type: cell-based; conditions: Homo sapiens, 0.5 h, IL-6 stimulation 30 min
Experimental: After incubating the crystalline form of the compound of Formula (I) of the present invention with Hep3B cells in a 37° C., 5% CO2 incubator for 15 min, […] IL-6 was added. Incubation was continued for 30 min, and the cells were lysed. The lysate was added to AlphaLISA SureFire Ultra p-STAT3 (Tyr705) assay kit (PerkinElmer), incubated at room temperature in dark, and the signals emitted by the receptor microbeads after energy absorption were measured, and the half inhibitory concentration (IC50) of inhibiting STAT3 phosphorylation was calculated.

[8] = Cytotoxicity (MTS) in N2a; assay type: cell-based; conditions: mouse, N2a neuroblastoma cells, neuroblastoma cell, 40 h incubation
Experimental: as §1

[9] = Viscous fluidity test (bulk density, angle of repose); assay type: physicochemical; conditions: for angle of repose: funnel method, tan α=H/R; for most apparent density (bulk density): without applying any external force
Experimental: (§2) A measuring container was filled with crystalline form B (1.97 g) of the compound of Formula (I), and the volume was determined to be 7.62 ml without applying any external force. The most apparent density (i.e., bulk density) was calculated to be 0.26 g/ml. The powder was slowly added into a funnel from above so that the material leaking from the bottom of the funnel formed a conical stack on the horizontal surface, and the diameter of the bottom of the cone (2R) and the height of the cone (H) were measured to be 3.59 cm and 1.79 cm, respectively. And the angle of repose was calculated to be 45 degrees according to the formula for calculating the angle of repose (tan α=H/R).
as §2, with “The” for “A measuring container was filled with crystalline form B (1.97 g) of the compound of Formula (I), and the volume was determined to be 7.62 ml without applying any external force. The”, “0.43” for “0.26”, “cone” for “cone (H)”, “2.91” for “3.59”, “1.46” for “1.79”

[10] = target: TYK2 (Homo sapiens, UniProt P29597); assay: TYK2 enzymatic activity inhibition assay (HTRF KinEASE-TK); assay type: biochemical
Experimental: as §3

[11] = 1 mg/kg gavage once a day for 14 days
[12] = 3 mg/kg gavage once a day for 14 days
[13] = 10 mg/kg gavage once a day for 14 days
[14] = high humidity (92.5%) for 5 days
[15] = high temperature (60° C.) for 5 days

T1 sequence (Q12809 whole entry): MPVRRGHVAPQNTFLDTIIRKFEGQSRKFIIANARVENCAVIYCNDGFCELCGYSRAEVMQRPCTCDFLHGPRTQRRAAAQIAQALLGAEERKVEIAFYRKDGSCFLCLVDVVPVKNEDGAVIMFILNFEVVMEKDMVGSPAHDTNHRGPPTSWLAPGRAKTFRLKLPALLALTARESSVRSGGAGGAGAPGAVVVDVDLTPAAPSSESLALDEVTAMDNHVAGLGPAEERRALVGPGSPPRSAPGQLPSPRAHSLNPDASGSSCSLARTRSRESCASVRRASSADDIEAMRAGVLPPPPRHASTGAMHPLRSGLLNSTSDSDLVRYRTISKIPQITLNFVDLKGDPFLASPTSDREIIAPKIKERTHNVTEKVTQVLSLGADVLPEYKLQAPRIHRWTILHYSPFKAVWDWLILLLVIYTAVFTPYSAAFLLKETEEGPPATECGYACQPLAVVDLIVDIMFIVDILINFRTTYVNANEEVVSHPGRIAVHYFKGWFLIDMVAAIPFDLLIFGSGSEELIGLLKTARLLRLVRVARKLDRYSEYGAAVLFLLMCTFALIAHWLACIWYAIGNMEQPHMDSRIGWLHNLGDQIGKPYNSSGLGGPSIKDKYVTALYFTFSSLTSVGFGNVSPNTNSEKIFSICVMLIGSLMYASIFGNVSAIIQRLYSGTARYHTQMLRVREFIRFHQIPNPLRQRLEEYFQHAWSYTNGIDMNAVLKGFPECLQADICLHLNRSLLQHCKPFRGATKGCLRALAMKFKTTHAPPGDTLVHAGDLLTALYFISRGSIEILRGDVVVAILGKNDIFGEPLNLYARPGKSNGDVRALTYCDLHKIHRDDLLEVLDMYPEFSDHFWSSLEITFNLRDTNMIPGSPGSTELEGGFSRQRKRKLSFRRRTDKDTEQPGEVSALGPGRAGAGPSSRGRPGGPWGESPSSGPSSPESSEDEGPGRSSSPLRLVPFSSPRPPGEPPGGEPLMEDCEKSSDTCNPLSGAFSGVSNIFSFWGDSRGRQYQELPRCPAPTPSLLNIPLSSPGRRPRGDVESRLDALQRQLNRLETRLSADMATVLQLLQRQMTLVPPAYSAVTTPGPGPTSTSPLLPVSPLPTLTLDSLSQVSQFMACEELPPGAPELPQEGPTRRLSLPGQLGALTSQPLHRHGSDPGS
Chain of TYK2 (P29597 whole entry, species assumed): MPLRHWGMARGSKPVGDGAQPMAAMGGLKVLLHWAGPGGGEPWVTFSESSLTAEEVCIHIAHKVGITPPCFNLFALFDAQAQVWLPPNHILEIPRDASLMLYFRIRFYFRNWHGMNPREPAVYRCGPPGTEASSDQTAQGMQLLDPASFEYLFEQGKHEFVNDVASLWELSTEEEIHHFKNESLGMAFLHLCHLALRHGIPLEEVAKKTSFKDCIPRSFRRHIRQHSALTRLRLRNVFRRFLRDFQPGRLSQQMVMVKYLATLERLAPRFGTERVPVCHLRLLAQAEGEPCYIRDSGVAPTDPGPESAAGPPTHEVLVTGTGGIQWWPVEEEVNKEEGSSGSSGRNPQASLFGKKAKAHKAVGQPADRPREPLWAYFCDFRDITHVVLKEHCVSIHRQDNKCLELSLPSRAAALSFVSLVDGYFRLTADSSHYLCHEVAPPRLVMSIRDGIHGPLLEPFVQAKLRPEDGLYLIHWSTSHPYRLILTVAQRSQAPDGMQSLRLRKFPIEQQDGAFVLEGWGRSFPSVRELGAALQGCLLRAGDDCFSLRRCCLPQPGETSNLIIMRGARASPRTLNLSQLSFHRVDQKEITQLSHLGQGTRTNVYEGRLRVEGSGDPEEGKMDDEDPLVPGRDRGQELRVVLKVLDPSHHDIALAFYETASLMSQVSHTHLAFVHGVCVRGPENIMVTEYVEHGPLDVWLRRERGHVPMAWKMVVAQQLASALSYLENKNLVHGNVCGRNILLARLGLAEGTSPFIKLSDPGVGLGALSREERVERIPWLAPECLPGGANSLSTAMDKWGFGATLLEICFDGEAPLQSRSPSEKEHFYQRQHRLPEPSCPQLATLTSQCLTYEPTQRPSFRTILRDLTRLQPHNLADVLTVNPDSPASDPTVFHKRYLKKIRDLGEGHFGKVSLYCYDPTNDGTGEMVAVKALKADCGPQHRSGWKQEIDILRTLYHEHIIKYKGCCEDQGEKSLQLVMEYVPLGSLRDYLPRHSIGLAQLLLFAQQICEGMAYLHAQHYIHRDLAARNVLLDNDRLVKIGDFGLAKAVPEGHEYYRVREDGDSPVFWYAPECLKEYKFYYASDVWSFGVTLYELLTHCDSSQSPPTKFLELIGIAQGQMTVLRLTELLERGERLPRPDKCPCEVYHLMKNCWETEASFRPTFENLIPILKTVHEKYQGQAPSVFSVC

## CCS(=O)(=O)N1CC(CC#N)(n2cc(-c3ccnc4[nH]ccc34)cn2)C1 [Crystalline form A, 2-(3-(4-(1H-pyrrolo[2,3-b]pyridin-4-yl)-1H-pyrazol-1-yl)-1-(ethylsulfonyl)azetidin-3-yl)acetonitrile]
[1]; human, probe tracer with high hERG affinity, at 30 μM, read-out: hERG inhibition rate
  inhibition at 2 h, 30 µM: < 50%
[1]; test concentration 3, 10 and 30 μM, 25° C., 2 h
  IC50: > 30 µM
[2]
  IC50 at 40 h: > 50 µM
[3]; 1 mg/kg
  Effect on mean pathological score of synovial hyperplasia/pannus (in words): to some extent
  Effect on mean pathological scores of joint inflammation and joint cartilage erosion (in words): significantly reduce
[3]; [11]
  Mean pathological score, Joint cartilage erosion (X ± SD): 5.10 ± 1.52
  Mean pathological score, Joint inflammation (X ± SD): 4.00 ± 1.25
  Mean pathological score, Synovial hyperplasia/pannus (X ± SD): 6.90 ± 0.99
[3]; 3 mg/kg
  Effect on mean pathological scores of joint inflammation, joint cartilage erosion and synovial hyperplasia/pannus (in words): significantly reduce
[3]; [12]
  Mean pathological score, Joint cartilage erosion (X ± SD): 2.20 ± 1.93
  Mean pathological score, Joint inflammation (X ± SD): 2.60 ± 1.90
  Mean pathological score, Synovial hyperplasia/pannus (X ± SD): 4.80 ± 1.40
[3]; 10 mg/kg
  Effect on mean pathological scores of joint inflammation, joint cartilage erosion and synovial hyperplasia/pannus (in words): significantly reduce
[3]; [13]
  Mean pathological score, Joint cartilage erosion (X ± SD): 0.10 ± 0.32
  Mean pathological score, Joint inflammation (X ± SD): 0.30 ± 0.67
  Mean pathological score, Synovial hyperplasia/pannus (X ± SD): 2.20 ± 0.42
[4]
  IC50: 0.0161 ± 0.00155 µM
[5]
  IC50 at 40 h: 23.1 µM
[6]; [14]
  Changes in crystalline form: No
[6]; [15]
  Changes in crystalline form: No
[6]; light condition for 5 days
  Changes in crystalline form: No
[7]
  IC50: 0.123 ± 0.0183 µM
[8]
  IC50 at 40 h: 33.6 µM
[9]
  particle fluidity: good particle fluidity
  angle of repose: 45 degrees
  most apparent density (bulk density): 0.43 g/mL
[10]
  IC50: 0.0228 ± 0.00403 µM

## CCS(=O)(=O)N1CC(CC#N)(n2cc(-c3ccnc4[nH]ccc34)cn2)C1 [Crystalline form B, 2-(3-(4-(1H-pyrrolo[2,3-b]pyridin-4-yl)-1H-pyrazol-1-yl)-1-(ethylsulfonyl)azetidin-3-yl)acetonitrile]
[6]; [14]
  Changes in crystalline form: No
[6]; [15]
  Changes in crystalline form: No
[6]; light condition for 5 days
  Changes in crystalline form: No
[9]
  particle fluidity: good particle fluidity
  angle of repose: 45 degrees
  most apparent density (bulk density): 0.26 g/mL

Source: US11066403B2, “Solid form of azetidine derivative and preparation method therefor and use thereof” (SICHUAN KELUN-BIOTECH BIOPHARMACEUTICAL CO., LTD., priority 2017, dated 2021)
